Laboratory results taken from patent publication EP4725957A1, “GROUP OF CYCLIC ALKALINE LIPOPEPTIDE COMPOUNDS, AND PREPARATION METHOD THEREFOR AND USE THEREOF” (Institute of Medicinal Biotechnology, Chinese Academy of …, priority 2023, dated 2024).
Values after ≈ are worked out from the molar mass of the structure shown. Like-named read-outs stand apart in the source and are kept apart here. Bridge positions count the residues as written; N and C are the ends. Square brackets hold non-standard residues; d marks the D form. Peptide text beside a SMILES is read from it. * marks the point of attachment. Heptanoyl(6-Me) = CC(C)CCCCC(=O)*; Nonanoyl = CCCCCCCCC(=O)*; X1 = CC[C@H](C)CCCCC(=O)*; Heptanoyl = CCCCCCC(=O)*; Octanoyl = CCCCCCCC(=O)*; dDap = NC[C@@H](N)C(=O)O; Dab = NCC[C@H](N)C(=O)O; Dap = NC[C@H](N)C(=O)O

Tests used:
Assay type in all cases: cell-based
[1] = test system: Escherichia coli ATCC BAA-2523
In short: (§1)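 Broth microdilution per CLSI in Mueller-Hinton broth. Compounds were tested at final concentrations of 64 to 0.03 mg/L (two-fold steps) against an inoculum of (2-4) × 10^5 CFU/mL, with incubation at 35-37°C for 16-20 h to give the MIC.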

[2] = test system: Pseudomonas aeruginosa ATCC 27853
In short: as §1

[3] = test system: Pseudomonas aeruginosa PAE19-3
In short: as §1

[4] = test system: Acinetobacter baumannii NCTC 13304 (OXA-27)
In short: as §1

[5] = test system: Klebsiella pneumoniae KPN+19-15
In short: as §1

[6] = test system: Escherichia coli ATCC BAA-2340 (KPC)
In short: as §1

[7] = test system: Klebsiella pneumoniae ATCC BAA-1705 (KPC)
In short: as §1

[8] = test system: Acinetobacter baumannii ABA19-1
In short: as §1

[9] = Nephrotoxicity assay: in vitro cytotoxicity of HK-2 cells by CCK-8 assay; conditions: human, HK-2 cells (human renal), 72 h incubation with drug-containing medium
In short: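 HK-2 human renal cells in RPMI-1640 with 10% FBS were exposed to compounds at final 12.5–500 µg/mL for 72 h, then CCK-8 for 3 h and OD450 read. Viability was normalised to drug-free wells; IC50 came from logarithmic regression over three repeats, with polymyxin B as positive drug.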

SMILES	MIC ([1]; Escherichia coli ATCC BAA-2523) [µg/mL]	MIC ([2]; Pseudomonas aeruginosa ATCC27853) [µg/mL]	MIC ([3]; Pseudomonas aeruginosa PAE19-3) [µg/mL]	MIC ([4]; Acinetobacter baumannii NCTC 13304 (OXA-27)) [µg/mL]	MIC ([5]; Klebsiella pneumoniae KPN 19-15) [µg/mL]	MIC ([6]; Escherichia coli ATCC BAA-2340 (KPC)) [µg/mL]	MIC ([7]; Klebsiella pneumoniae ATCC BAA-1705 (KPC)) [µg/mL]	MIC ([8]; Acinetobacter baumannii ABA19-1) [µg/mL]	IC50 at 72 h [9] [µg/mL]	MIC ([1]; ATCC BAA-2523) [µg/mL]	MIC ([2]; ATCC 27853) [µg/mL]	MIC ([3]; PAE19-3) [µg/mL]	MIC ([4]; NCTC 13304) [µg/mL]	MIC ([5]; KPN+19-15) [µg/mL]	MIC ([6]; ATCC BAA-2340) [µg/mL]	MIC ([7]; ATCC BAA-1705) [µg/mL]	MIC ([8]; ABA19-1) [µg/mL]
CCCCCCCC(=O)N[C@@H](CCN)C(=O)N[C@H](C(=O)N[C@H](CN)C(=O)N[C@H]1CCNC(=O)[C@H]([C@@H](C)O)NC(=O)[C@H](CCN)NC(=O)[C@H](CCN)NC(=O)[C@H](CC(C)C)NC(=O)[C@@H](Cc2ccccc2)NC(=O)[C@H](CCN)NC1=O)[C@@H](C)O [Compound 33, Octanoyl-Dab-Thr-D-Dap-ring(4-10)[Dab-Dab-D-Phe-Leu-Dab-Dab-Thr]] (Octanoyl-[Dab]T[dDap][Dab][Dab][dF]L[Dab][Dab]T; lactam 4-C)	0.03 (≈ 0.0255 µM)	0.03 (≈ 0.0255 µM)	0.25 (≈ 0.213 µM)	0.03 (≈ 0.0255 µM)	0.03 (≈ 0.0255 µM)	0.03 (≈ 0.0255 µM)	0.03 (≈ 0.0255 µM)	0.03 (≈ 0.0255 µM)	339 ± 9.1 (≈ 289 µM)	–	–	–	–	–	–	–	–
CCCCCCC(=O)N[C@@H](CCN)C(=O)N[C@H](C(=O)N[C@H](CN)C(=O)N[C@H]1CCNC(=O)[C@H]([C@@H](C)O)NC(=O)[C@H](CCN)NC(=O)[C@H](CCN)NC(=O)[C@H](CC(C)C)NC(=O)[C@@H](Cc2ccccc2)NC(=O)[C@H](CCN)NC1=O)[C@@H](C)O [Compound 34, Heptanoyl-Dab-Thr-D-Dap-ring(4-10)[Dab-Dab-D-Phe-Leu-Dab-Dab-Thr]] (Heptanoyl-[Dab]T[dDap][Dab][Dab][dF]L[Dab][Dab]T; lactam 4-C)	–	–	–	–	–	–	–	–	298 ± 3.7 (≈ 256 µM)	0.06 (≈ 0.0517 µM)	0.06 (≈ 0.0517 µM)	0.5 (≈ 0.431 µM)	0.06 (≈ 0.0517 µM)	0.06 (≈ 0.0517 µM)	0.06 (≈ 0.0517 µM)	0.06 (≈ 0.0517 µM)	0.06 (≈ 0.0517 µM)
CCCCCCCCC(=O)N[C@@H](CCN)C(=O)N[C@H](C(=O)N[C@H](CN)C(=O)N[C@H]1CCNC(=O)[C@H]([C@@H](C)O)NC(=O)[C@H](CCN)NC(=O)[C@H](CCN)NC(=O)[C@H](CC(C)C)NC(=O)[C@@H](Cc2ccccc2)NC(=O)[C@H](CCN)NC1=O)[C@@H](C)O [Compound 35, Nonanoyl-Dab-Thr-D-Dap-ring(4-10)[Dab-Dab-D-Phe-Leu-Dab-Dab-Thr]] (Nonanoyl-[Dab]T[dDap][Dab][Dab][dF]L[Dab][Dab]T; lactam 4-C)	–	–	–	–	–	–	–	–	138 ± 8.3 (≈ 116 µM)	0.06 (≈ 0.0504 µM)	0.06 (≈ 0.0504 µM)	0.5 (≈ 0.42 µM)	0.06 (≈ 0.0504 µM)	0.06 (≈ 0.0504 µM)	0.06 (≈ 0.0504 µM)	0.06 (≈ 0.0504 µM)	0.06 (≈ 0.0504 µM)
CC[C@H](C)CCCCC(=O)N[C@@H](CCN)C(=O)N[C@H](C(=O)N[C@@H](CN)C(=O)N[C@H]1CCNC(=O)[C@H]([C@@H](C)O)NC(=O)[C@H](CCN)NC(=O)[C@H](CCN)NC(=O)[C@H](CC(C)C)NC(=O)[C@@H](Cc2ccccc2)NC(=O)[C@H](CCN)NC1=O)[C@@H](C)O [Compound 36, (S)-6-methyloctanoyl-Dab-Thr-Dap-ring(4-10)[Dab-Dab-D-Phe-Leu-Dab-Dab-Thr]] (X1-[Dab]T[Dap][Dab][Dab][dF]L[Dab][Dab]T; lactam 4-C)	–	–	–	–	–	–	–	–	237 ± 5.3 (≈ 199 µM)	0.03 (≈ 0.0252 µM)	0.03 (≈ 0.0252 µM)	0.25 (≈ 0.21 µM)	0.03 (≈ 0.0252 µM)	0.03 (≈ 0.0252 µM)	0.03 (≈ 0.0252 µM)	0.03 (≈ 0.0252 µM)	0.03 (≈ 0.0252 µM)
CC(C)CCCCC(=O)N[C@@H](CCN)C(=O)N[C@H](C(=O)N[C@@H](CN)C(=O)N[C@H]1CCNC(=O)[C@H]([C@@H](C)O)NC(=O)[C@H](CCN)NC(=O)[C@H](CCN)NC(=O)[C@H](CC(C)C)NC(=O)[C@@H](Cc2ccccc2)NC(=O)[C@H](CCN)NC1=O)[C@@H](C)O [Compound 37, 6-methylheptanoyl-Dab-Thr-Dap-ring(4-10)[Dab-Dab-D-Phe-Leu-Dab-Dab-Thr]] ({Heptanoyl(6-Me)}-[Dab]T[Dap][Dab][Dab][dF]L[Dab][Dab]T; lactam 4-C)	–	–	–	–	–	–	–	–	318 ± 10.2 (≈ 270 µM)	0.03 (≈ 0.0255 µM)	0.03 (≈ 0.0255 µM)	0.25 (≈ 0.213 µM)	0.03 (≈ 0.0255 µM)	0.03 (≈ 0.0255 µM)	0.03 (≈ 0.0255 µM)	0.03 (≈ 0.0255 µM)	0.03 (≈ 0.0255 µM)
